Marks after values point to notes of the source that are not given here.
Legend:
[1] = system: cervical cancer; experiment: Dose escalation cohort of the cemiplimab first-in-human study, cervical cancer patients; type: in vivo; details: one cervical squamous patient, earlier response to cemiplimab+hfRT in dose escalation
Description: (Papadopoulos et al., Clin Cancer Res (December 2019) Epub). The sum total equates to a 17% objective response rate among cervical cancer patients enrolled in the phase I study (4/23 combined; 2/3 responding patients in dose escalation plus 2/20 in expansion cohorts). All responders had squamous histology.

[2] = system: recurrent or metastatic cervical cancer; experiment: Phase I expansion cohorts: cemiplimab 3 mg/kg IV Q2W alone or plus hfRT, tumor response (RECIST 1.1), PFS, OS; type: in vivo, human
Description: The combination therapy cohort enrolled patients for whom palliative hfRT was planned to a lesion that was causing some signs or symptoms. The radiated lesion was not followed as a target lesion for response assessments.
Additional eligibility criteria included an Eastern Cooperative Oncology Group performance status score of 0 or 1, and adequate organ function. Patients were required to have at least one measurable lesion per Response Evaluation Criteria in Solid Tumors (RECIST) version 1.1. (Eisenhauer et al., Eur J Cancer 45 (2009) 228-47). In the combination therapy cohort, the measureable lesion(s) were in addition to the irradiated lesion.
Assessments: Tumor histology was assessed per local pathology reports of tumor samples obtained at any time prior to study enrollment. […] Extensive safety evaluations were performed during screening and on Day 1 of each subsequent treatment cycle throughout the study. Routine safety evaluations were performed at each cemiplimab dosing visit. Tumor response assessments were performed by investigators, per RECIST 1.1, at the end of each 8-week treatment cycle. In combination therapy cohorts, the lesions selected for hfRT were not included in RECIST 1.1 assessments.
Statistical analysis of clinical data: The safety summaries and analyses were performed on the safety analysis set. Data were summarized using descriptive statistics, along with two-sided 95% confidence interval (CI), by dose cohort. Continuous variables were summarized with mean, median, standard deviation, minimum, and maximum. Categorical variables were summarized with frequency and percentage. Kaplan-Meier analysis was performed for progression-free survival (PFS) and OS.

[3] = system: recurrent or metastatic cervical cancer; experiment: Phase 3 trial, cemiplimab versus IC chemotherapy: quality of life, EORTC QLQ-C30 (GHS/QoL, functioning and symptom scales), MMRM LS mean change from baseline; type: in vivo, human; details: for Overall difference in LS mean change from baseline (95% CI), GHS/QoL / Overall difference in LS mean change from baseline (95% CI), Physical functioning / Overall difference in LS mean change from baseline (95% CI), Role functioning: EORTC QLQ-C30, positive numbers favor cemiplimab; for Overall difference in LS mean change from baseline (95% CI), GHS/QoL / Overall difference in LS mean change from baseline (95% CI), Physical functioning / Overall difference in LS mean change from baseline (95% CI), Role functioning / Overall difference in LS mean change from baseline (95% CI), Appetite loss / Overall difference in LS mean change from baseline (95% CI), Fatigue / Overall difference in LS mean change from baseline (95% CI), Pain: cemiplimab minus chemotherapy; for Overall difference in LS mean change from baseline (95% CI), Appetite loss / Overall difference in LS mean change from baseline (95% CI), Fatigue / Overall difference in LS mean change from baseline (95% CI), Pain: EORTC QLQ-C30 symptom scale, negative numbers favor cemiplimab; for Difference in LS mean change, Cemiplimab versus Chemotherapy, GHS/QoL / Difference in LS mean change, Cemiplimab versus Chemotherapy, Physical Functioning / LS mean change from baseline, EORTC QLQ-C30 GHS/QoL / LS mean change from baseline, EORTC QLQ-C30 Physical Functioning: SCC patients
Description: QOL is measured by the EORTC QLQ-C30.
Quality of Life Questionnaires: Patient-reported outcomes are measured using the validated patient self-administered EORTC QLQ-C30 questionnaire. Patients are asked to complete these questionnaires prior to any study procedures being performed at a given study visit (during the on-study/treatment and follow-up periods).
QoL: Longitudinal change from baseline at each PRO assessment in the GHS/QoL and PF scales was analyzed using a mixed model with repeated measures (MMRM). Higher scores on these scales indicate better health status/function. […] The model generated least squares (LS) mean estimates, standard errors, 95% CIs and p-values (where applicable) for mean changes from baseline on each PRO assessment.
At baseline and Day 1 of each treatment cycle (up to 16), patients were administered the EORTC QLQ-030. Mixed-effects repeated measures models estimated least squares (LS) mean change from baseline across all scales. Responder analyses determined the proportions with clinically meaningful (using 10-point threshold) improvement or deterioration, or stability on QLQ-030.

[4] = investigator assessment, n = 10 per cohort

Substance: cemiplimab
- response to retreatment after disease recurrence [1]: complete response
- objective response rate among cervical cancer patients enrolled in the phase I study ([2]; 4/23 combined: dose escalation plus expansion cohorts): 17%
- responding patients in expansion cohorts ([2]; both expansion cohorts combined): 2/20
- NE (not evaluable), n (%) ([2]; includes missing and unknown tumor response, n = 10 per cohort): 1 n (%)
- ORR, % (95% CI) ([2]; investigator assessment, RECIST 1.1, n = 10 per cohort): 10.0%
- Partial response, n (%) [2, 4]: 1 n (%)
- Progressive disease, n (%) [2, 4]: 5 n (%)
- Stable disease, n (%) [2, 4]: 3 n (%)
- Kaplan-Meier estimation of median OS ([2]; n = 10 per cohort): 10.3 months
- Kaplan-Meier estimation of median PFS ([2]; n = 10 per cohort): 1.9 months
- patients with best response of stable disease ([2]; n = 10 per cohort): 30%
- Disease control rate, % (95% CI) ([2]; objective response or stable disease, n = 10 per cohort): 40.0%
- patients with partial response ([2]; one patient in each cohort of 10): 10%
- DOR (duration of response) ([2]; one responder in each group): 11.2 months
- Observed time to response ([2]; one responder in each group): 1.8 months
- Durable disease control rate, % (95% CI) ([2]; without progression for at least 16 weeks (105 days), n = 10 per cohort): 20.0%
- Overall difference in LS mean change from baseline (95% CI), GHS/QoL ([3]; AC (post-hoc)): 2.0 (−5.4; 9.3)
- Overall difference in LS mean change from baseline (95% CI), Physical functioning ([3]; AC (post-hoc)): 2.6 (−4.3; 9.5)
- Overall difference in LS mean change from baseline (95% CI), Role functioning ([3]; AC (post-hoc)): 8.3 (−0.0; 16.6)
- Overall difference in LS mean change from baseline (95% CI), GHS/QoL ([3]; Overall population): 7.8 (3.3; 12.3)*
- Overall difference in LS mean change from baseline (95% CI), Physical functioning ([3]; Overall population): 8.3 (4.3; 12.2)*
- Overall difference in LS mean change from baseline (95% CI), Role functioning ([3]; Overall population): 13.1 (8.3; 17.9)^‡
- Overall difference in LS mean change from baseline (95% CI), GHS/QoL ([3]; SCC): 8.5 (3.8; 13.2)^†
- Overall difference in LS mean change from baseline (95% CI), Physical functioning ([3]; SCC): 8.4 (4.1; 12.6)^†
- Overall difference in LS mean change from baseline (95% CI), Role functioning ([3]; SCC): 11.4 (6.3; 16.6)^‡
- Overall difference in LS mean change from baseline (95% CI), Appetite loss ([3]; AC (post-hoc)): −5.9 (−19.8; 2.4)
- Overall difference in LS mean change from baseline (95% CI), Fatigue ([3]; AC (post-hoc)): −5.9 (−13.9; 2.2)
- Overall difference in LS mean change from baseline (95% CI), Pain ([3]; AC (post-hoc)): −7.6 (−17.1; 1.9)
- Overall difference in LS mean change from baseline (95% CI), Appetite loss ([3]; Overall population): −11.3 (−16.6; −6.0)^‡
- Overall difference in LS mean change from baseline (95% CI), Fatigue ([3]; Overall population): −9.1 (−14.1; −4.0)^‡
- Overall difference in LS mean change from baseline (95% CI), Pain ([3]; Overall population): −10.2 (−16.2; −4.3)^‡
- Overall difference in LS mean change from baseline (95% CI), Appetite loss ([3]; SCC): −10.9 (−16.6; −5.2)^‡
- Overall difference in LS mean change from baseline (95% CI), Fatigue ([3]; SCC): −8.6 (−14.0; −3.3)^‡
- Overall difference in LS mean change from baseline (95% CI), Pain ([3]; SCC): −10.4 (−16.9; −3.8)^‡
- Difference in LS mean change, Cemiplimab versus Chemotherapy, GHS/QoL ([3]; C2D1): 4.14
- Difference in LS mean change, Cemiplimab versus Chemotherapy, Physical Functioning ([3]; C2D1): 4.09
- LS mean change from baseline, EORTC QLQ-C30 GHS/QoL ([3]; C2D1): −2.02
- LS mean change from baseline, EORTC QLQ-C30 Physical Functioning ([3]; C2D1): −1.82
- Difference in LS mean change, Cemiplimab versus Chemotherapy, GHS/QoL ([3]; C3D1): 9.41
- Difference in LS mean change, Cemiplimab versus Chemotherapy, Physical Functioning ([3]; C3D1): 7.33
- LS mean change from baseline, EORTC QLQ-C30 GHS/QoL ([3]; C3D1): 1.18
- LS mean change from baseline, EORTC QLQ-C30 Physical Functioning ([3]; C3D1): 2.10
- Difference in LS mean change, Cemiplimab versus Chemotherapy, GHS/QoL ([3]; C4D1): 12.36
- Difference in LS mean change, Cemiplimab versus Chemotherapy, Physical Functioning ([3]; C4D1): 10.41
- LS mean change from baseline, EORTC QLQ-C30 GHS/QoL ([3]; C4D1): 5.15
- LS mean change from baseline, EORTC QLQ-C30 Physical Functioning ([3]; C4D1): 5.21
- Difference in LS mean change, Cemiplimab versus Chemotherapy, GHS/QoL ([3]; C5D1): 6.94

Reference: patent US20210403567A1, “METHODS OF TREATING CERVICAL CANCER BY ADMINISTERING A PD-1 INHIBITOR” (priority 2020, published 2021)
